# Earlier results, collected in US10143689B2, “SN-38 loaded iron crosslinked micelle and methods thereof” (Intezyne Technologies, Inc., priority 2017, dated 2018).
# Tests used:
# various cancer cells = conditions: in vitro
smiles,measurement,setting,value
"CCc1c2c(nc3ccc(O)cc13)-c1cc3c(c(=O)n1C2)COC(=O)[C@]3(O)CC [SN-38, 7-ethyl-10-hydroxy-CPT]","cytotoxic activity, potency relative to CPT-11",various cancer cells,"up to 1,000 fold"
same,solubility in aqueous solutions,,exceedingly insoluble
